Measured values from patent US20250064904A1 (priority 2019, published 2025).

Tests used:
[1] = system: salivary glands (submandibular, parotid); parameters: species or system human; conditions: in vivo
salivary glands = conditions: in vivo; cited from earlier work

Substance: botulinum toxin type A
- uptake of 18F-PSMA in the treated glands [1]: significantly reduced
- uptake of 68Ga-PSMA in the glands treated with botulinum toxin [1]: significantly reduced
- uptake of 177Lu-PSMA in the treated glands [1]: significantly reduced
- uptake of 225Ac-PSMA-617 in the treated glands [1]: significantly reduced
- onset of action (salivary glands): around six
